Series [1] in a line: Autoclave test of transference of the chemical from liquid water phase to steam phase at 200° C. (gas chromatography). It counts as physicochemical. To be noted: autoclave 200° C.; for Conc. of chemical in water / Conc. of chemical in steam: 200 mg/liter aqueous solution, pH 11.5 with sodium hydroxide; for Conc. of chemical in water: liquid phase sample; for Conc. of chemical in steam: steam phase sample. The method, then: Each 50 ml of samples were taken from the steam phase and from the liquid phase directly after the temperature had reached at 200° C., which were analyzed for the concentration of the chemical on a gas chromatography. The ratio of the concentration of chemical in the steam phase versus the concentration of chemical in the liquid phase was calculated.

Series [2] is described as follows: Removal of dissolved oxygen by potassium erysorbate at 60° C., 10 minutes. To be noted: 100 mg potassium erysorbate per liter, pH of test soln. as in row (6.5-10.5). The method, then: In a constant temperature bath held at 60° C., one liter of deionized water of a pH of 6.5 was stirred for one hour so as to saturate it with atmospheric oxygen and the oxygen concentration was measured by a dissolved oxygen meter (MOCA 3600 of the firm Orbisphere Laboratories). 100 mg of potassium erysorbate were added to the water and the mixture was agitated sufficiently, before the solution was poured into a 200 ml incubation bottle to fill it completely therewith, whereupon a closure stopper was fitted into the bottle so as to exclude any rest of gas space therein and the bottle was returned to the constant temperature bath of 60° C. to subject the solution to reaction for 10 minutes. After 10 minutes, the bottle was taken out of the bath and the dissolved oxygen concentration therein was detected by the dissolved oxygen meter. The rate of removal of dissolved oxygen is calculated from the proportion of the dissolved oxygen concentration after the addition of potassium erysorbate versus the dissolved oxygen concentration before the addition of potassium erysorbate (Comparative Example 15).
Test solutions were prepared from each one liter of deionized water by adjusting the pH thereof at 7.5, 9.0 and 10.5, respectively, by adding sodium hydroxide thereto as alkali reagent. […]

The structures appear in SMILES notation. Bounds are passed on as bounds.

On to `CCCCCC1CCC(=O)O1` (stereo not drawn) [Example 1, γ-nonalactone], for which, in series [1], the “Conc. of chemical in water” value stood at 188 µg/mL and the “Conc. of chemical in steam” value came to 207 µg/mL. The “Conc. ratio Cs/Cw (concentration in the steam phase/concentration in liquid water phase)” value in series [1] (pH 11.5) is 1.10.
The corresponding values for `CCCCCCC1CCC(=O)O1` (stereo not drawn) [Example 2, γ-decalactone] are 187 µg/mL, 120 µg/mL and 0.64.
In the case of `C=CCc1ccc(O)c(OC)c1` [Example 4, Eugenol], in series [1], the “Conc. of chemical in water” value was determined as 184 µg/mL and the “Conc. of chemical in steam” value amounted to 418 µg/mL. For the same compound, the “Conc. ratio Cs/Cw (concentration in the steam phase/concentration in liquid water phase)” value in series [1] (pH 11.5) is reported as 2.27.
As for `CC=Cc1ccc(O)c(OC)c1` [Example 5, Isoeugenol], in series [1], the “Conc. of chemical in water” value was 186 µg/mL and the “Conc. of chemical in steam” value came out at 453 µg/mL. In addition, the “Conc. ratio Cs/Cw (concentration in the steam phase/concentration in liquid water phase)” value in series [1] (pH 11.5) came to 2.44.
As to `O=C1O[C@H](CO)[C@@H](O)[C@H](O)[C@H]1O` [compound 1, glucono-δ-lactone, reference compound], in series [1], the “Conc. of chemical in water” value was under 1 µg/mL, the “Conc. of chemical in steam” value was under 1 µg/mL and the “Transference from the liquid water phase to the steam phase” value is on record as “almost no transference”. Also, the “Conc. ratio Cs/Cw (concentration in the steam phase/concentration in liquid water phase)” value in series [1] (pH 11.5) is recorded as under 0.01. In series [1] (liquid water phase, pH 11.5), the “Converted into gluconic acid (with some decomposition into other compounds)” value is “*2) Converted into 173 mg/l of gluconic acid with some decomposition into other compounds”.
`O=C1O[C@H]([C@H](O)CO)C([O-])=C1O.[K+]` [compound 15, potassium erysorbate]: the “Rate of O2 remov.” value in series [2] is on record as 30.1%.
